# Data: patent US20220153745A1, “DISUBSTITUTED BENZOTHIENYL-PYRROLOTRIAZINES AND THEIR USE AS FGFR KINASE INHIBITORS” (Bayer Intellectual Property GmbH, priority 2011, published 2022)
# Where a name gives a salt, the structure may show the parent alone.
# Tests used:
# mTOR = target: T1, mTOR (Homo sapiens, UniProt P42345); assay: mTOR kinase assay (TR-FRET, for comparative purposes); type: biochemical; conditions: for inhibition at 1 µM: read-out: mTOR % inhibition @ 1 μM, mean inhibition at 1 μM test compound, 40 μM ATP
# T1 construct: human mTOR amino acids from 1360 to 2549; purchased Invitrogen 4753; host or cells: insect cells
# FGFR-1 = target: T2, FGFR-1 (Homo sapiens, UniProt P11362); assay: FGFR-1 high ATP kinase assay (TR-FRET); type: biochemical; conditions: 2 mM ATP, 15 min pre-incubation; compounds of the invention (Table 1A)
# T2 construct: human FGFR-1 from amino acids G400 to R800 as in GenBank entry NM_015850; purchased Proqinase 0101-0000-1; host or cells: SF9 insect cells (baculovirus)
# FGFR-3 = target: T3, FGFR-3 (Homo sapiens, UniProt P22607); assay: FGFR-3 kinase assay (TR-FRET); type: biochemical; conditions: 10 μM ATP, 15 min pre-incubation; compounds of the invention (Table 2A)
# T3 construct: human FGFR-3 from amino acids R397 to T806 as in NCBI/Protein entry NP_000133.1; purchased Proqinase 1068-0000-1; host or cells: SF9 insect cells (baculovirus)
# [1] = system: Human umbilical vein endothelial cells (HUVEC); assay: Inhibition of hFGF-2 mediated HUVEC proliferation; type: cell-based; conditions: 72 h
# T3 sequence (P22607 397-806): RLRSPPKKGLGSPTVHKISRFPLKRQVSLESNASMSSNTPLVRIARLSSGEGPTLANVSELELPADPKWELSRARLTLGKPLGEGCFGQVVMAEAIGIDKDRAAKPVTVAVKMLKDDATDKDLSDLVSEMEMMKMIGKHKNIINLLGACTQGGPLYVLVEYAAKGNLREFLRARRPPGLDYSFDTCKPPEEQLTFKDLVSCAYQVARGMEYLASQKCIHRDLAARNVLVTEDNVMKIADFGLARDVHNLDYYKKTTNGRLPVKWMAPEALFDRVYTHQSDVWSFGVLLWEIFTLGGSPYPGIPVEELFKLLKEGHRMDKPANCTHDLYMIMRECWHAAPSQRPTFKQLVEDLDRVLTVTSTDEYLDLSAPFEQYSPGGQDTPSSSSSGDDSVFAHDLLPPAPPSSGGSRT
# T1 sequence (P42345 1360-2549): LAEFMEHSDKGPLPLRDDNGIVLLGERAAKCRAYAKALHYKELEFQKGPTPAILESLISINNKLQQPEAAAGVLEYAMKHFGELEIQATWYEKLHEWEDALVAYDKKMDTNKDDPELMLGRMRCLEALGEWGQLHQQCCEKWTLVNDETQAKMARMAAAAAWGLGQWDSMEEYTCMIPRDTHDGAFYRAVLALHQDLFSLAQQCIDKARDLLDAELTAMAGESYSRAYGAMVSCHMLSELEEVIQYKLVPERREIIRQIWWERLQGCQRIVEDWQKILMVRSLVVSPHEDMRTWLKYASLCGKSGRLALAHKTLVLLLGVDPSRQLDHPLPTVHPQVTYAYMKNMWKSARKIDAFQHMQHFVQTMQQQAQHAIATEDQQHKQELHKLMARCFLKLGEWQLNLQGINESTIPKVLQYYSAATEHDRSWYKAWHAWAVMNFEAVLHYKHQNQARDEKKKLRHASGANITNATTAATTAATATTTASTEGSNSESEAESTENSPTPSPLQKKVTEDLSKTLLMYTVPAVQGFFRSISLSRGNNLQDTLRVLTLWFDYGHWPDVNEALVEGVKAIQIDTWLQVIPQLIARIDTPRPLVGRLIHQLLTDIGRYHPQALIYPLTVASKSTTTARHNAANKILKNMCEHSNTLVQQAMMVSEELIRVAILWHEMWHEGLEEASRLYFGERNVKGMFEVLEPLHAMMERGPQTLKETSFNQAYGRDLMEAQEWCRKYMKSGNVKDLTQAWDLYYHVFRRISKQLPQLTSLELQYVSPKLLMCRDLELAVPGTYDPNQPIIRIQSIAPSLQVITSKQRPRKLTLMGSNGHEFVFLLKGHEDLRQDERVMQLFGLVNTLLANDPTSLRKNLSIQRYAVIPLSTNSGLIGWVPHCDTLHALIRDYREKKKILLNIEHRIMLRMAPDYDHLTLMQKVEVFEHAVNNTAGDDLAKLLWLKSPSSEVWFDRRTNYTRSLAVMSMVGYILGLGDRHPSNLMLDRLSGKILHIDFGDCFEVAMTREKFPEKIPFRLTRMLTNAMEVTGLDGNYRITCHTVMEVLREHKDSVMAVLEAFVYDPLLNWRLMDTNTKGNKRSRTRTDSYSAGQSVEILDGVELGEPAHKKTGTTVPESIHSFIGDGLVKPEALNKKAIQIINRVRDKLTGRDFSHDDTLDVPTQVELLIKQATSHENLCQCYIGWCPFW
# T2 sequence (P11362 402-822): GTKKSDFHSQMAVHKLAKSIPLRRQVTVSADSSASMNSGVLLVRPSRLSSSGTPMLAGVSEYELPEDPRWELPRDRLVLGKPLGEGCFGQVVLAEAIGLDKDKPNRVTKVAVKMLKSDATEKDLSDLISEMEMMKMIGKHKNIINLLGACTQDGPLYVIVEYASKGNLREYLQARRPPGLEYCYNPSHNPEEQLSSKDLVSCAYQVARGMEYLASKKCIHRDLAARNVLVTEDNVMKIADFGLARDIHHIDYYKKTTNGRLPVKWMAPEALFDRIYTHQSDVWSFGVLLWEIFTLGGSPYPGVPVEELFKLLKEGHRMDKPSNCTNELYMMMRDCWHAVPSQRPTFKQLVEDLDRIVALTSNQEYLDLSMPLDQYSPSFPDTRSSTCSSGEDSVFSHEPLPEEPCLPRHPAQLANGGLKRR
Compound,inhibition at 1 µM (mTOR),IC50 (FGFR-1),IC50 (FGFR-3),IC50 [1],"mTOR % inhibition @ 1 μM (mTOR; mean inhibition at 1 μM test compound, 40 μM ATP)"
"CCOCc1c(-c2cc3cc(C)cc(OC)c3s2)c2c(N)ncnn2c1CN1CCN(C(C)=O)CC1 [Example 11, 1-(4-{[4-Amino-6-(ethoxymethyl)-5-(7-methoxy-5-methyl-1-benzothiophen-2-yl)pyrrolo[2,1-f][1,2,4]triazin-7-yl]methyl}piperazin-1-yl)ethanone dihydrochloride]",33.2%,6.5 nM,–,–,–
"COCc1c(-c2cc3cc(C)cc(OC)c3s2)c2c(N)ncnn2c1CN1CC[C@](C)(N)C1 [Example 14, 7-{[(3S)-3-Amino-3-methylpyrrolidin-1-yl]methyl}-6-(methoxymethyl)-5-(7-methoxy-5-methyl-1-benzothiophen-2-yl)pyrrolo[2,1-f][1,2,4]triazin-4-amine trihydrochloride]",15.7%,–,2.5 nM,–,–
"COCc1c(-c2cc3cc(C)cc(OC)c3s2)c2c(N)ncnn2c1CN1CCN(C(C)=O)CC1 [Example 16, 1-(4-{[4-Amino-6-(methoxymethyl)-5-(7-methoxy-5-methyl-1-benzothiophen-2-yl)pyrrolo[2,1-f]-[1,2,4]triazin-7-yl]methyl}piperazin-1-yl)ethanone dihydrochloride]",36.9%,–,9.4 nM,–,–
"CCNCc1c(-c2cc3cc(C)cc(OC)c3s2)c2c(N)ncnn2c1CN1CCNCC1 [Example 38, 6-[(Ethylamino)methyl]-5-(7-methoxy-5-methyl-1-benzothiophen-2-yl)-7-(piperazin-1-ylmethyl)pyrrolo[2,1-f][1,2,4]triazin-4-amine trihydrochloride]",20.8%,6.9 nM,–,–,–
"COc1cc(C)cc2cc(-c3c(CNC4CCC4)c(CN4CCNCC4)n4ncnc(N)c34)sc12 [Example 44, 6-[(Cyclobutylamino)methyl]-5-(7-methoxy-5-methyl-1-benzothiophen-2-yl)-7-(piperazin-1-ylmethyl)pyrrolo[2,1-f][1,2,4]triazin-4-amine trihydrochloride]",13.3%,2.1 nM,–,–,–
"COc1cc(C)cc2cc(-c3c(CNCC(C)(C)O)c(CN4CCN(C(C)=O)CC4)n4ncnc(N)c34)sc12 [Example 57, 1-(4-{[4-Amino-6-{[(2-hydroxy-2-methylpropyl)amino]methyl}-5-(7-methoxy-5-methyl-1-benzothiophen-2-yl)pyrrolo[2,1-f][1,2,4]triazin-7-yl]methyl}piperazin-1-yl)ethanone]",2%,–,–,3.2 nM,–
"COc1cc(C)cc2cc(-c3c(CN4CCNC(=O)C4)c(CN4CCN(C(C)=O)CC4)n4ncnc(N)c34)sc12 [Example 59, 4-({7-[(4-Acetylpiperazin-1-yl)methyl]-4-amino-5-(7-methoxy-5-methyl-1-benzothiophen-2-yl)pyrrolo[2,1-f][1,2,4]triazin-6-yl}methyl)piperazin-2-one]",0.8%,–,–,51.1 nM,–
"COC(=O)c1c(-c2cc3cc(C)cc(OC)c3s2)c2c(N)ncnn2c1C(=O)N1CCNCC1 [Example 60, Methyl 4-amino-5-(7-methoxy-5-methyl-1-benzothiophen-2-yl)-7-(piperazin-1-ylcarbonyl)pyrrolo[2,1-f][1,2,4]triazine-6-carboxylate bis(formiate)]",11.1%,–,–,250 nM,–
"COc1cc(C)cc2cc(-c3c(-c4cnco4)c(CN4CCNCC4)n4ncnc(N)c34)sc12 [Example 61, 5-(7-Methoxy-5-methyl-1-benzothiophen-2-yl)-6-(1,3-oxazol-5-yl)-7-(piperazin-1-ylmethyl)pyrrolo[2,1-f][1,2,4]triazin-4-amine trihydrochloride]",15.9%,–,0.9 nM,–,–
"COc1cc(C)cc2cc(-c3c(CNC(C)=O)c(CN4CCNC(=O)C4)n4ncnc(N)c34)sc12 [Example 67, N-({4-Amino-5-(7-methoxy-5-methyl-1-benzothiophen-2-yl)-7-[(3-oxopiperazin-1-yl)methyl]-pyrrolo[2,1-f][1,2,4]triazin-6-yl}methyl)acetamide]",8.4%,–,–,12.1 nM,–
"COc1cc(C)cc2cc(-c3c(CO)c(C#N)n4ncnc(N)c34)sc12 [Example 68, 4-Amino-6-(hydroxymethyl)-5-(7-methoxy-5-methyl-1-benzothiophen-2-yl)pyrrolo[2,1-f][1,2,4]-triazine-7-carbonitrile]",8%,–,–,14.4 nM,–
"COc1cc(C)cc2cc(-c3c(CNC(C)=O)c(CNC(C)=O)n4ncnc(N)c34)sc12 [Example 72, N,N′-{[4-Amino-5-(7-methoxy-5-methyl-1-benzothiophen-2-yl)pyrrolo[2,1-f][1,2,4]triazine-6,7-diyl]bis(methylene)}diacetamide]",8.2%,–,–,1.6 nM,–
"COc1cc(C)cc2cc(-c3c(CO)c(C(C)(C)O)n4ncnc(N)c34)sc12 [Example 73, 2-[4-Amino-6-(hydroxymethyl)-5-(7-methoxy-5-methyl-1-benzothiophen-2-yl)pyrrolo[2,1-f][1,2,4]-triazin-7-yl]propan-2-ol]",18.5%,–,–,5.5 nM,–
"COc1cc(C)cc2cc(-c3c(CN4CCNC(=O)C4)c(C(C)(C)O)n4ncnc(N)c34)sc12 [Example 74, 4-{[4-Amino-7-(2-hydroxypropan-2-yl)-5-(7-methoxy-5-methyl-1-benzothiophen-2-yl)pyrrolo[2,1-f][1,2,4]triazin-6-yl]methyl}piperazin-2-one]",18.6%,–,–,0.2 nM,–
"COc1cc(C)cc2cc(-c3c(CO)c(C)n4ncnc(N)c34)sc12 [Example 75, [4-Amino-5-(7-methoxy-5-methyl-1-benzothiophen-2-yl)-7-methylpyrrolo[2,1-f][1,2,4]triazin-6-yl]-methanol]",10.2%,–,–,1.5 nM,–
"COc1cc(C)cc2cc(-c3c(CN4CCNC(=O)C4)c(C)n4ncnc(N)c34)sc12 [Example 76, 4-{[4-Amino-5-(7-methoxy-5-methyl-1-benzothiophen-2-yl)-7-methylpyrrolo[2,1-f][1,2,4]triazin-6-yl]methyl}piperazin-2-one]",8.5%,–,–,1.5 nM,–
"COc1cc(C)cc2cc(-c3c(CNCC(C)(C)O)c(C)n4ncnc(N)c34)sc12 [Example 77, 1-({[4-Amino-5-(7-methoxy-5-methyl-1-benzothiophen-2-yl)-7-methylpyrrolo[2,1-f][1,2,4]triazin-6-yl]methyl}amino)-2-methylpropan-2-ol formiate]",–,–,–,3.2 nM,0.7%
"COc1cc(C)cc2cc(-c3c(CO)c(Cl)n4ncnc(N)c34)sc12 [Example 79, [4-Amino-7-chloro-5-(7-methoxy-5-methyl-1-benzothiophen-2-yl)pyrrolo[2,1-f][1,2,4]triazin-6-yl]-methanol]",14.7%,–,–,3.5 nM,–
"COc1cc(C)cc2cc(-c3c(CNCC(C)(C)O)c(Cl)n4ncnc(N)c34)sc12 [Example 81, 1-({[4-Amino-7-chloro-5-(7-methoxy-5-methyl-1-benzothiophen-2-yl)pyrrolo[2,1-f][1,2,4]triazin-6-yl]methyl}amino)-2-methylpropan-2-ol formiate]",4.1%,–,–,1.6 nM,–
"COc1cc(C)cc2cc(-c3c(C)c(CN4CCNCC4)n4ncnc(N)c34)sc12 [Example 84, 5-(7-Methoxy-5-methyl-1-benzothiophen-2-yl)-6-methyl-7-(piperazin-1-ylmethyl)pyrrolo[2,1-f][1,2,4]triazin-4-amine formiate]",9.1%,–,–,46.6 nM,–
